From patent US5662929A, “Therapeutic liposomal formulation” (Universite de Montreal, priority 1994, dated 1997)

How the values were obtained:
[1] = system: Pseudomonas aeruginosa PA 508 (mucoid phenotype); assay: Bactericidal effect in chronic pulmonary infection, rat (Table 3 experiment); format: in vivo, P. aeruginosa in Sprague-Dawley rats
Experimental: Different liposomal formulations were prepared according to Example 1 and analyzed by differential scan colorimetry. Using differential scan calorimetry, the temperatures of phase transition (Tc) were calculated for the tobramycin-liposomal formulations listed in Table 1. All these formulations were then tested in vitro to assess the antibiotic kinetics of liberation from the liposomes. In addition, these formulations were tested in a non-infected mouse model as previously described (Omri et al. 1994, Antimicrob. Agents Chemother. 38:1090-1095) to assess the persistence of the liposomes in the lung. Only the DPPC/DMPG 10:1, 15:1 and DSPC. […] These liposomal formulations were further tested in animal model of chronic pulmonary infection to examine their antibacterial efficacy. […] Of note, the addition of cholesterol to the formulation described in Table 1 brought the Tc to a minimum value of 60° C. Such formulations were incompatible with modulation of gradual antibiotic liberation and suitable interactions with bacteria. Thus, in order to maintain the desired characteristic of the liposome formulation, a low rigidity of the liposomes seems required. This low rigidity can be achieved by maintaining a low temperature of phase transition (below the body temperature of the animal to which the formulation is to be administered) and avoiding the use of cholesterol in the formulation.
(§1) To evaluate the bactericidal efficacy of a liposomal aminoglycoside formulation produced according to the present invention, male, pathogen-free, Sprague-Dawley rats weighing 175 to 225 g (Charles River) were used. Chronic infection in lungs was established by intratracheal administration of 5×10^5 CFU of Pseudomonas aeruginosa PA 508 (mucoid phenotype) prepared in agar beads. It is to be pointed out that this rat model for chronic pulmonary infection is widely recognized as the most appropriate animal model for chronic pulmonary infections in human CF patients. After 3 days, three doses (600 ug) of free or liposome-encapsulated tobramycin were given intratracheally at intervals of 16 h. The lipid mixture were DPPC:DMPG at a molar ratio of 10:1 (formula no 1) and DPPC:DMPC at a molar ratio of 15:1 (formula no 2). Sixteen hours after the last treatment, the animals were sacrificed and the entire lungs were removed aseptically, weighed and homogenized as described previously for mice. Serial 10-fold dilutions of the homogenates in cold PBS were made and spread in triplicate on proteose peptone agar plates. Identification of P. aeruginosa was confirmed by specific cultures. CFU were counted after 24-h incubations at 37° C. under 5% CO^2. Counts were expressed in log CFU per pair of lungs. PBS and PBS-liposomes were used as controls.

[2] = Pulmonary retention / tobramycin levels after intratracheal administration in non-infected mice; format: in vivo, BALB/c mice; conditions: 200 ug intratracheal, HPLC
Experimental: Using differential scan calorimetry, the temperatures of phase transition (Tc) were calculated for the tobramycin-liposomal formulations listed in Table 1. All these formulations were then tested in vitro to assess the antibiotic kinetics of liberation from the liposomes. […] These liposomal formulations were further tested in animal model of chronic pulmonary infection to examine their antibacterial efficacy.
Lungs and kidneys were removed aseptically, weighed, and then homogenized in cold sterile PBS (40% [wt/vol]) for 30 s with a Polytron homogenizer. Tobramycin levels in both homogenized tissues and sera were measured by HPLC. Groups of three mice were used for each time value.

P. aeruginosa = assay: Bactericidal effect in infected rat lung tissues, second experiment (Table 4); format: in vivo, P. aeruginosa in Sprague-Dawley rats; conditions: two doses of 240 ug
Source text: as §1, with “After 3 days, three doses (600 ug) of free or liposome-encapsulated tobramycin were given intratracheally at intervals of 16 h.” left out, “controls. […]” for “controls.”

NC[C@H]1O[C@H](O[C@H]2[C@H](O)[C@@H](O[C@H]3O[C@H](CO)[C@@H](O)[C@H](N)[C@H]3O)[C@H](N)C[C@@H]2N)[C@H](N)C[C@@H]1O [free tobramycin, tobramycin]
bacteria enumerated ([1]; free antibiotic, see below): 10^7 c.f.u. | antibacterial efficacy in chronic pulmonary infection model (in words) ([1]; rat, compared with free antibiotic): no or little bactericidal activity | log cfu/pair of lungs ([1]; three doses (600 ug) intratracheally at 16 h intervals, 16 h after last treatment): 7.10 log cfu/pair of lungs | cfu/pair of lungs ([1]; three doses (600 ug) intratracheally at 16 h intervals, 16 h after last treatment, cfu counts < 30 not statistically significant): 1.25 × 10^7 cfu/pair of lungs | Conc in lungs ([2]; 0.25 h): 43 ug/pair of lungs | Conc in kidneys ([2]; 1 h): 25 ug/pair of kidneys | Conc in lungs ([2]; 1 h): 11 ug/pair of lungs | cfu/pair of lungs (P. aeruginosa): 1.07 × 10^6 cfu/pair of lungs | log cfu/pair of lungs (P. aeruginosa): 6.03 log cfu/pair of lungs
